From the NIST ThermoML archive (doi:10.1016/j.jct.2009.08.018)
± gives the expanded uncertainty stated by the source.

Assay: xn = mol fraction of the nth substance listed
Conditions: Liquid, Static

Q: Which results are given for CCCCCCCCCCn1cc[n+](C)c1.O=S(=O)([N-]S(=O)(=O)C(F)(F)F)C(F)(F)F + O=C=O?
A: molar volume (298.15 K, 1474 kPa, x2 = 0.35): 0.0002775 ± 2.3e-07 m3/mol; molar volume (298.15 K, 2828 kPa, x2 = 0.562): 0.0001997 ± 1.5e-07 m3/mol; molar volume (298.15 K, 4516 kPa, x2 = 0.709): 0.000147 ± 8e-08 m3/mol; molar volume (298.15 K, 6799 kPa, x2 = 0.81): 0.0001111 ± 7e-08 m3/mol; molar volume (298.15 K, 8659 kPa, x2 = 0.83): 0.0001006 ± 6e-08 m3/mol; molar volume (298.15 K, 10909 kPa, x2 = 0.841): 9.556e-05 ± 4e-08 m3/mol; molar volume (298.15 K, 12873 kPa, x2 = 0.848): 9.235e-05 ± 4e-08 m3/mol; molar volume (298.15 K, 14847 kPa, x2 = 0.849): 9.169e-05 ± 4e-08 m3/mol; molar volume (323.15 K, 1439 kPa, x2 = 0.257): 0.0003212 ± 1.8e-07 m3/mol; molar volume (323.15 K, 3371 kPa, x2 = 0.489): 0.0002347 ± 1.2e-07 m3/mol; molar volume (323.15 K, 6891 kPa, x2 = 0.696): 0.0001569 ± 1e-07 m3/mol; molar volume (323.15 K, 8581 kPa, x2 = 0.752): 0.0001354 ± 6e-08 m3/mol; molar volume (323.15 K, 10917 kPa, x2 = 0.8): 0.0001145 ± 4e-08 m3/mol; molar volume (323.15 K, 13030 kPa, x2 = 0.814): 0.0001086 ± 4e-08 m3/mol; molar volume (323.15 K, 14596 kPa, x2 = 0.819): 0.0001071 ± 4e-08 m3/mol; molar volume (343.15 K, 2003 kPa, x2 = 0.302): 0.0003089 ± 2.2e-07 m3/mol; molar volume (343.15 K, 3941 kPa, x2 = 0.475): 0.0002428 ± 1.6e-07 m3/mol; molar volume (343.15 K, 6242 kPa, x2 = 0.587): 0.0002017 ± 1.2e-07 m3/mol; molar volume (343.15 K, 8674 kPa, x2 = 0.683): 0.000164 ± 1e-07 m3/mol; molar volume (343.15 K, 10773 kPa, x2 = 0.744): 0.0001384 ± 8e-08 m3/mol; molar volume (343.15 K, 12515 kPa, x2 = 0.776): 0.0001249 ± 6e-08 m3/mol; molar volume (343.15 K, 14534 kPa, x2 = 0.801): 0.000113 ± 6e-08 m3/mol

Q: What does the source list for CCCCCC[n+]1ccn(C)c1.O=S(=O)([N-]S(=O)(=O)C(F)(F)F)C(F)(F)F + O=C=O?
A: molar volume (298.15 K, 2015 kPa, x2 = 0.396): 0.0002205 ± 1.4e-07 m3/mol; molar volume (298.15 K, 3586 kPa, x2 = 0.592): 0.000163 ± 9e-08 m3/mol; molar volume (298.15 K, 6489 kPa, x2 = 0.762): 0.0001127 ± 8e-08 m3/mol; molar volume (298.15 K, 8967 kPa, x2 = 0.8): 9.883e-05 ± 4e-08 m3/mol; molar volume (298.15 K, 10321 kPa, x2 = 0.81): 9.556e-05 ± 4e-08 m3/mol; molar volume (298.15 K, 11969 kPa, x2 = 0.819): 9.198e-05 ± 4e-08 m3/mol; molar volume (298.15 K, 13525 kPa, x2 = 0.822): 9.084e-05 ± 4e-08 m3/mol; molar volume (298.15 K, 14804 kPa, x2 = 0.823): 9.095e-05 ± 4e-08 m3/mol; molar volume (323.15 K, 800 kPa, x2 = 0.139): 0.0003082 ± 1.9e-07 m3/mol; molar volume (323.15 K, 3716 kPa, x2 = 0.487): 0.0002013 ± 1e-07 m3/mol; molar volume (323.15 K, 5430 kPa, x2 = 0.583): 0.0001725 ± 8e-08 m3/mol; molar volume (323.15 K, 6560 kPa, x2 = 0.637): 0.0001568 ± 8e-08 m3/mol; molar volume (323.15 K, 8039 kPa, x2 = 0.692): 0.0001395 ± 6e-08 m3/mol; molar volume (323.15 K, 9078 kPa, x2 = 0.726): 0.0001282 ± 6e-08 m3/mol; molar volume (323.15 K, 9969 kPa, x2 = 0.751): 0.000118 ± 6e-08 m3/mol; molar volume (323.15 K, 11081 kPa, x2 = 0.769): 0.0001108 ± 4e-08 m3/mol; molar volume (323.15 K, 12224 kPa, x2 = 0.774): 0.0001094 ± 4e-08 m3/mol; molar volume (323.15 K, 12959 kPa, x2 = 0.779): 0.0001079 ± 4e-08 m3/mol; molar volume (343.15 K, 1793 kPa, x2 = 0.14): 0.0003081 ± 1.8e-07 m3/mol; molar volume (343.15 K, 2754 kPa, x2 = 0.239): 0.0002782 ± 1.4e-07 m3/mol; molar volume (343.15 K, 5537 kPa, x2 = 0.436): 0.0002194 ± 1.2e-07 m3/mol; molar volume (343.15 K, 8861 kPa, x2 = 0.596): 0.0001701 ± 8e-08 m3/mol; molar volume (343.15 K, 11560 kPa, x2 = 0.673): 0.0001447 ± 6e-08 m3/mol; molar volume (343.15 K, 14469 kPa, x2 = 0.721): 0.0001282 ± 6e-08 m3/mol; molar volume (343.15 K, 19818 kPa, x2 = 0.755): 0.0001169 ± 4e-08 m3/mol; molar volume (343.15 K, 24708 kPa, x2 = 0.771): 0.0001115 ± 4e-08 m3/mol

Q: For CCn1cc[n+](C)c1.O=S(=O)([N-]S(=O)(=O)C(F)(F)F)C(F)(F)F + O=C=O, which molar volume (298.15 K, 1235 kPa, x2 = 0.28) is on record?
A: 0.000204 ± 1.3e-07 m3/mol

Q: And the molar volume (298.15 K, 3254 kPa, x2 = 0.533)?
A: 0.0001415 ± 1e-07 m3/mol

Q: What about the molar volume (298.15 K, 6471 kPa, x2 = 0.747) of the same compound?
A: 9.622e-05 ± 4e-08 m3/mol

Q: And the molar volume (298.15 K, 10194 kPa, x2 = 0.767)?
A: 9.034e-05 ± 5e-08 m3/mol

Q: And the molar volume (298.15 K, 11608 kPa, x2 = 0.777)?
A: 8.747e-05 ± 5e-08 m3/mol

Q: And the molar volume (298.15 K, 13084 kPa, x2 = 0.781)?
A: 8.646e-05 ± 5e-08 m3/mol

Q: What about the molar volume (298.15 K, 14794 kPa, x2 = 0.782) of the same compound?
A: 8.625e-05 ± 5e-08 m3/mol

Q: What about the molar volume (323.15 K, 2005 kPa, x2 = 0.302) of the same compound?
A: 0.0002021 ± 1.4e-07 m3/mol

Q: And the molar volume (323.15 K, 4250 kPa, x2 = 0.483)?
A: 0.0001607 ± 1e-07 m3/mol

Q: And the molar volume (323.15 K, 6213 kPa, x2 = 0.587)?
A: 0.0001367 ± 8e-08 m3/mol

Q: What about the molar volume (323.15 K, 8156 kPa, x2 = 0.657) of the same compound?
A: 0.0001197 ± 6e-08 m3/mol

Q: What about the molar volume (323.15 K, 10081 kPa, x2 = 0.711) of the same compound?
A: 0.0001049 ± 6e-08 m3/mol

Q: And the molar volume (323.15 K, 12307 kPa, x2 = 0.743)?
A: 9.597e-05 ± 4e-08 m3/mol

Q: And the molar volume (323.15 K, 14625 kPa, x2 = 0.749)?
A: 9.492e-05 ± 4e-08 m3/mol

Q: And the molar volume (343.15 K, 2182 kPa, x2 = 0.247)?
A: 0.0002186 ± 1.4e-07 m3/mol

Q: What about the molar volume (343.15 K, 4070 kPa, x2 = 0.416) of the same compound?
A: 0.0001777 ± 1e-07 m3/mol

Q: And the molar volume (343.15 K, 6063 kPa, x2 = 0.509)?
A: 0.0001559 ± 8e-08 m3/mol

Q: What about the molar volume (343.15 K, 7999 kPa, x2 = 0.579) of the same compound?
A: 0.0001394 ± 8e-08 m3/mol

Q: What about the molar volume (343.15 K, 9938 kPa, x2 = 0.636) of the same compound?
A: 0.0001249 ± 6e-08 m3/mol

Q: And the molar volume (343.15 K, 12143 kPa, x2 = 0.684)?
A: 0.0001117 ± 6e-08 m3/mol

Q: What about the molar volume (343.15 K, 14682 kPa, x2 = 0.709) of the same compound?
A: 0.0001056 ± 4e-08 m3/mol
